Reference: patent US20060037100A1, “Fungal resistant transgenic pepper plants and their production method” (priority 2004, published 2006)

System: pepper cells
Assay: Hygromycin sensitivity of pepper cells (growth of hypocotyl explants on SIM medium)
Assay type: cell-based, Capsicum annuum L. (pepper)
Description: The sensitivity of untransformed wild type (WT) and transformed (T) hypocotyl explants to hygromycin B was examined by using shoot induction medium containing 0, 5, 10, 20, 50 mg/l of hygromycin B (A). Fresh weight (mg) of hypocotyl explants growing on the medium containing hygromycin B (B).
Selection of transgenic cells was preformed in medium containing 20 mg/l hygromycin B in all experiments.

CN[C@H]1C[C@@H](N)[C@H](O)[C@@H](O[C@@H]2O[C@H](CO)[C@H](O)[C@@H]3OC4(O[C@H]23)O[C@H]([C@@H](N)CO)[C@H](O)[C@H](O)[C@H]4O)[C@@H]1O (some centres unmarked) [hygromycin B]
effect on the growth of pepper cells (hygromycin B 5 mg/l in SIM medium, after 14 days of culture): severe inhibitory effect
hygromycin B concentration up to which transgenic cells showed resistance (transgenic (transformed) pepper cells on SIM medium): up to 50 mg/l
